Columns and labels:
RNase S = system: RNase S; parameters: method as in Kim and Raines, Protein Sci. 1993 (ref 26); settings: S-peptide cleaved from N-terminal domain of RNase A; ref Kim and Raines, Protein Sci. 1993 (ref 26); cited from earlier work
insulin [1] = target: T1, insulin (Homo sapiens, UniProt P01308); assay: peptide-directed proximity catalysis labeling of insulin, intact protein LC-MS; format: biochemical; settings: control (scrambled peptide, peptide lacking PyOx, or PyOx-azide) with biotin-NASA 3b, pH 7.4, 2 h, 22 °C
T1 sequence (P01308 25-54 limits assumed): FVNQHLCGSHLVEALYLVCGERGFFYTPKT
T1 sequence (P01308 90-110 limits assumed): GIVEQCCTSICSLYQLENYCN
Protocol: With these reagents in hand, we attempted peptide-directed proximity catalysis on insulin. Initial experiments were performed in pH 7.4 phosphate buffer at a concentration of 50 μM, which was above the K d calculated for peptide binding (Figure ). Varying equivalents of pyridinium oxime peptide P1-(PyOx) 1 (0, 1.25, 2.5, 5, or 10 equiv wrt protein) were then added, followed by the addition of biotin–NASA 3b (20 equiv wrt protein). […] After 2 h at room temperature (22 °C), reactions were analyzed by intact protein liquid chromatography mass spectrometry (LC-MS). […] Further controls using either a scrambled peptide (FYRTGF-(PyOx)1), peptide lacking the pyridinium oxime P1, or pyridinium oxime-azide 2 also gave no labeling, providing further evidence that labeling was mediated by a specific protein–peptide binding interaction, and catalyzed by the pyridinium oxime motif.
General protocol: A solution of PyOx-peptide probe ([…] in pH 7.4 PBS, 25 µL, 7.4 PBS, 25 µL, 1.25 nmol; Final concentration 25 µM ) and shaken for 30 min . A solution of biotin-NASA 3b (25 mM in DMSO, 1 µL, 25 nmol; Final concentration 490 µM) was then added and the mixture shaken at room temperature for 2 h. Samples were then analysed by LC-MS without purification.
Figure S5: Deconvoluted mass spectra from general labelling protocol showing modified and unmodified insulin. […]

insulin [2] = target: T1, insulin; assay: QCM-D binding of gold-tethered peptides to insulin; settings: predicted from QCM-D of model peptides, 'noting the assumptions detailed above'
Description: To predict whether the insulin-binding capability of P1 would be maintained after the introduction of a pyridinium oxime catalyst, peptides bearing either an N- or C-terminal cysteine (C-P1 and P1-C, respectively) were first synthesized and tethered to a gold sensor for quartz crystal microbalance with dissipation monitoring (QCM-D) analysis. It is important to note that these model peptides lacked the positive charge that would be introduced upon installation of a pyridinium oxime, and so evidence of binding was expected to be indicative of binding potential, rather than providing an exact measure of binding affinity.
Sensor preparation: QCM-D gold sensors (QSX 301, Biolin Scientific) were cleaned by UV–ozone treatment (30 min), followed by sonication in a 2% Hellmanex III solution (5 min) and then sonication in ultrapure water (5 min). Sensors were then dried with N2 […]
Binding studies: Following cleaning, each sensor was installed into the flow modules of a Q-Sense E4, QFM 401 system by Biolin Scientific. Each chamber was then filled with Milli-Q water at a flow rate of 100 μL/min controlled by a four-channel peristaltic pump. To achieve a stable baseline, PBS was left to flow through the modules at 100 μL/min until the drift in frequency was <±1 Hz over 10 min. […]

| insulin labeling, controls (insulin [1]) | predicted affinity for target protein (insulin [2]) | Substance | binding affinity to remaining parent protein RNase S (RNase S) |
| --- | --- | --- | --- |
| – | – | KETAAAKFERQHMDSSTSA [P2] | nM binding affinty |
| no labeling | – | FYRTGF-(PyOx)1 [scrambled peptide control] | – |
| no labeling | μM affinity | RGFFYT [P1] | – |

Source: PMC12756790, “Site-Selective Protein Modification via Peptide-Directed Proximity Catalysis” (ACS Omega, 2025)
